Reference: PubChem BioAssay (NCI)
Counter-ions that a name gives are not always drawn.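 96-well plates; 48 h exposure; 5 concentrations. Endpoints by linear interpolation between flanking doses. Not reached: highest tested concentration assigned. The concentration for 50% growth inhibition is given as GI50. TGI marks complete inhibition of growth.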 Where a SMILES comes first, the peptide text is derived from it. The star is where a group is joined. Boc = CC(C)(C)OC(=O)*; Tfa = O=C(C(F)(F)F)*; Bz = O=C(c1ccccc1)*

Tests used:
Experiment in all cases: NCI tumour cell line growth inhibition, 48 h
[1] = test system: TK-10 renal
[2] = test system: HCC-2998 colon
[3] = test system: OVCAR-4 ovarian
[4] = test system: OVCAR-5 ovarian
[5] = test system: HT29 colon
[6] = test system: EKVX NSCLC
[7] = test system: MDA-N
[8] = test system: A549 NSCLC
[9] = test system: HOP-92 NSCLC
[10] = test system: LOX IMVI melanoma

Structure (SMILES)	TGI [1] [µM]	TGI [2] [µM]	TGI [3] [µM]	TGI [4] [µM]	TGI [5] [µM]	TGI [6] [µM]	TGI [7] [µM]	TGI [8] [µM]	TGI [9] [µM]	TGI [10] [µM]	GI50 [1] [µM]	GI50 [2] [µM]	GI50 [3] [µM]	GI50 [9] [µM]	GI50 [4] [µM]	GI50 [10] [µM]	GI50 [5] [µM]	GI50 [6] [µM]	GI50 [8] [µM]
Cc1cc(N(CCC#N)CCC#N)ccc1/C(N=Nc1ccc(Cl)cc1)=N\NC(=O)c1cc(Cl)ccc1O	> 100	> 100	> 100	> 100	> 100	> 100	> 100	> 100	–	–	–	–	–	–	–	–	–	–	–
CC(NC(=O)C(Cc1ccc(OC(=O)c2ccccc2)cc1)NC(=O)OC(C)(C)C)C(=O)NC(Cc1ccccc1)C(=O)NCC(N)=O (stereo not given) (Boc-Y(Bz)AFG-NH2; configuration not given here)	41.4	38.5	47.2	40.3	34.4	–	79.4	55	50.9	49.5	–	–	–	–	–	–	–	–	–
Cc1c(C#N)c2nnn(-c3ccc(Cl)cc3)c(=O)n2c1-c1ccccc1	55	0.201	> 59.3	32.1	0.49	31.3	–	> 40.3	25.7	12.9	–	–	–	–	–	–	–	–	–
CCc1ccc(N=Cc2cc(OC)c(OC)c(OC)c2)cc1	> 100	–	> 100	> 100	> 100	> 100	–	> 100	> 100	> 100	–	–	–	–	–	–	–	–	–
Nc1sc2c(c1C(=O)c1ccc(Cl)c(Cl)c1)CCCC2	> 100	49.3	> 100	> 100	> 100	> 100	–	> 100	> 100	> 100	–	–	–	–	–	–	–	–	–
O=C(O)CC(NC(=O)C(F)(F)F)C(=O)NC(Cc1ccc(O)cc1)C(=O)O (stereo not drawn) (Tfa-Asp-Tyr-OH; configuration not given here)	> 50	> 50	–	> 50	> 50	> 50	> 50	> 50	> 50	–	–	–	–	–	–	–	–	–	–
O=C(OCc1ccccc1CN1CCOCC1)c1cccc(Br)c1	–	> 100	70	> 100	29.5	> 100	–	> 100	> 100	> 100	–	–	–	–	–	–	–	–	–
COC1=C2CC(C)CC(OC)C(O)C(C)/C=C(\C)C(OC(N)=O)C(OC)/C=C\C=C(/C)C(=O)NC(=C(C=NC(C)(C)C)C1=O)C2=O (stereo not given)	–	16.6	14.4	74.1	21	26	–	37.5	1.35	22.3	–	–	–	–	–	–	–	–	–
CN(C)CCOc1cccc2c1C(=O)c1ccccc1C2=O	66.6	30.3	20.4	40.8	28.7	34.6	–	45.4	29	18.6	–	–	–	–	–	–	–	–	–
O=[N+]([O-])c1nc(-c2ccccn2)[nH]c1[N+](=O)[O-]	> 100	> 100	> 100	> 100	> 100	> 100	–	> 100	> 100	> 100	–	–	–	–	–	–	–	–	–
CC[C@@]1(N(C)C)C(=O)OCc2c1cc1n(c2=O)Cc2cc3ccccc3nc2-1	> 100	> 100	> 100	> 100	–	> 100	–	> 100	69.6	33.5	–	–	–	–	–	–	–	–	–
Cc1ccc2c3c1O[C@H]1c4[nH]c5ccccc5c4C[C@@]4(O)[C@@H](C2)N(C)CC[C@]314	–	–	34	38.2	25.6	–	33.3	32.9	23.2	29.6	–	–	–	–	–	–	–	–	–
O=C(Nc1cccc(-n2ccc3c(NC(=O)c4ccccc4)nccc32)c1)c1ccc(N2CCOCC2)c(C(F)(F)F)c1	> 100	–	> 70.7	> 100	–	> 100	–	> 100	6.87	> 100	0.0782	0.0614	0.168	0.179	0.188	0.0427	0.038	0.212	0.0513
OCC1OC(n2nc(-c3ccccc3)nc2-c2cnccn2)C(O)C(O)C1O (stereo not given)	–	> 100	> 100	> 100	> 100	–	> 100	> 100	> 100	> 100	–	–	–	–	–	–	–	–	–
CCOC(=O)CN1C(=O)c2c(c(C)n(-c3ccccc3)c2C)C1=O	> 100	> 100	> 100	> 100	> 100	> 100	> 100	> 100	> 100	–	–	–	–	–	–	–	–	–	–
NC(=O)c1nnc2ccc(F)cc2c1N	> 100	> 100	> 100	> 100	> 100	> 100	> 100	> 100	–	> 100	–	–	–	–	–	–	–	–	–
Cc1ccc(-c2nc(C)c(C(=O)Nc3ccc(Cl)cc3)s2)cc1	38.9	–	49.2	> 100	> 100	> 100	> 100	> 100	70.2	> 100	–	–	–	–	–	–	–	–	–
CC(C)(C)c1cc(CC2C(=O)c3ccccc3C2=O)cc(C(C)(C)C)c1O	23.7	–	> 100	57.6	13.8	28	> 100	87.2	1.07	16.2	–	–	–	–	–	–	–	–	–
CCOC(=O)c1c2c3c(cccc3[nH]c1=O)Sc1ncccc1-2	> 100	> 100	> 100	96.6	94.9	> 100	> 100	85.3	–	> 100	–	–	–	–	–	–	–	–	–
COc1cc(C2SC(N)=Nc3c2c(C)nn3C(=O)c2ccccc2O)cc(OC)c1OC (stereo not given)	> 10	–	> 10	> 10	> 10	> 10	> 10	> 10	8.07	> 10	–	–	–	–	–	–	–	–	–
COc1ccc2nc3cc(Cl)ccc3c(NCCCN(Cc3cc(OC)c(OC)c(OC)c3)Cc3cc(OC)c(OC)c(OC)c3)c2c1	44.1	37.3	–	27.9	16.6	37.4	–	30.7	23.7	–	–	–	–	–	–	–	–	–	–
